Tests used:
DDPAC MAPT SRE RNA = assay: Fluorescent binding affinity, DDPAC SRE RNA; details: inherent fluorescence, n=3
Description: (§1) Fluorescent Binding Affinity Measurements. Binding assays were completed as previously described.^30 Briefly, the RNA of interest was folded in 1× Assay Buffer-1 (AB1: 8 mM Na2HPO4, pH 7.0, 185 mM NaCl, and 1 mM EDTA) by heating at 95° C. for 30 s followed by slowly cooling to room temperature. Bovine serum albumin (BSA) was then added to a final concentration of 40 μg/mL to afford 1× Assay Buffer-2 (AB2: 8 mM Na2HPO4, pH 7.0, 185 mM NaCl, 1 mM EDTA, and 40 μg/mL BSA). The RNA solution was serial diluted with 1×AB2. Then, compound of interest was added to the RNA solutions to a final concentration of 0.5 μM. […] Fluorescence intensity was measured using a Tecan Plate Reader (Gain: 100, Integration time: 40 μs). […] The change in fluorescence of the small molecule was calculated by its comparison to samples lacking RNA. Binding affinity was calculated using Equation 1, as previously described:^30
(§2) where I and I0 are the measured fluorescence intensity of the compound with or without RNA, respectively, Δε is the difference between the fluorescence intensity with the infinite concentration of RNA and the fluorescence intensity without RNA, [SM]0 and [RNA]0 are the concentrations of the small molecule (SM) and RNA, respectively, and Kd is the dissociation constant.

DDPAC SRE RNA = assay: In vitro competitive Chem-CLIP (C-Chem-CLIP), DDPAC SRE RNA; details: 3 at 1.5 μM, read-out: IC50, competition of the binding of 3
Description: In Vitro Chemical Cross-linking and Isolation by Pull Down (Chem-CLIP) and Competitive Chem-CLIP (C-Chem-CLIP). Growth medium [Dulbecco's modified eagle medium (DMEM; corning, 10-013-CM) with 1× Glutagro (corning)] and 10% (v/v) fetal bovine serum (FBS; Sigma, 12003C) was inactivated by heating at 95° C. for 15 min and slowly cooling to room temperature. Approximately 10,000 counts of 32P 5′-end labeled tau WT, DDPAC, WT+I17T, or DDPAC+I17T RNA were folded in 10 μL growth medium by heating at 65° C. for 5 min and slowly cooling to room temperature. Chem-CLIP probe 3 or negative control probe 4 was then added into the folded RNA in a total volume of 20 μL, and the mixtures were incubated at 37° C. for 1 h. For C-Chem-CLIP, dilutions of competing compound 2 were incubated with RNA for 30 min before adding 3. […]
The Chem-CLIP probe 3 or control probe 4 was then clicked to disulfide biotin azide (2 μL of 10 mM solution prepared in DMSO solution per sample; Click Chemistry Tools, catalog no. 1168-10). […] The radioactive signal from bound RNAs (on the beads) and unbound RNAs (in the wash buffer) was measured by using a Beckman Coulter LS6500 Liquid Scintillation Counter as Rbound and Runbound. Enrichment was calculated as the percentage of radiolabeled RNA captured by beads calculated as Rbound/(Rbound+Runbound).

[1] = Cell viability (WST-1), untransfected HeLa cells; assay type: cell-based; details: human, hela cells, 12.5 μM, WST-1, read-out: reduction of viability of HeLa cells
Description: (§3) Cell Viability. Cells were treated with DMSO (vehicle) or compound 2 for 48 h at 37° C. After the removal of the DMSO or compound-containing growth medium, the cells were washed with 1×DPBS and incubated in growth medium containing 10% (v/v) WST-1 cell proliferation reagent (Roche) or CellTiter Fluor (Promega; per the manufacturer's recommend protocol) for 40 min. The absorbance of the solution was measured at 450 and 650 nm with a SpectraMax M5 plate reader (Molecular Devices) for cells treated with WST-1. The background signal at 650 nm was subtracted from the WST-1 signal at 450 nm for analysis. For cells treated with CellTiter Fluor, the fluorescence was measured with 390 nm excitation and 505 nm emission wavelengths. Cells treated with a compound were compared to vehicle treated cells to determine the effect of the compound on cell viability.

HeLa cells = assay: Cell viability (WST-1), untransfected HeLa cells; assay type: cell-based; details: up to 12.5 μM, 48 h
Description: as §3

WT MAPT SRE RNA = assay: Fluorescent binding affinity, WT SRE RNA
Description: as §1, §2

[2] = Plasma protein binding by equilibrium dialysis; assay type: in vitro ADME; details: 37° C., 6 h (2 at 5 μM), read-out: free fraction in plasma
Description: Plasma and brain binding. Plasma protein binding was determined by equilibrium dialysis using a Thermo Scientific™ RED Device per the manufacturer's protocol. Each sample was prepared by addition of 2 into 100 μL plasma with final concentration of 5 μM (0.1% (v/v) DMSO). 1×PBS was used as dialysis buffer and was added into the buffer chamber. The plate was incubated with shaking at 37° C. for 6 h. The concentration of 2 in the plasma and buffer compartments was determined as described in Quantitation of 2 in Mouse Plasma and Brain. The free fraction was calculated as [buffer]/[plasma].

Work on `COc1cc(N)ncc1CCCN(C)CCCn1cnc2c3ccccc3n(C)c2c1=O` [Compound 2, 3-(3-((3-(6-amino-4-methoxypyridin-3-yl)propyl)(methyl)amino)propyl)-5-methyl-3,5-dihydro-4H-pyrimido[5,4-b]indol-4-one] yielded a Kd (DDPAC MAPT SRE RNA) of 0.58 ± 0.1 µM, an IC50 (DDPAC SRE RNA) of ~2 µM and a cytotoxicity at 48 h, 12.5 µM [1] of 17 ± 3%. The “effect on viability of HeLa cells” value (HeLa cells) was “No effect on the viability”, the “higher affinity for the MAPT SRE than 1” value (WT MAPT SRE RNA; 2 vs 1) was ~ 6 fold and the Kd (WT MAPT SRE RNA; WT RNA, inherent fluorescence, n=3) was 0.55 ± 0.11 µM. The fraction unbound at 6 h [2] was 0.089 ± 0.009.
